Experimental data taken from the NIST ThermoML archive (doi:10.1021/acs.jced.5b00562).

Conditions: for specific volume: Gas, isochoric method; for mass density: Liquid, Vibrating tube method

F/C=C(\F)C(F)(F)F [(Z)-1,2,3,3,3-pentafluoro-1-propene]
Conditions	mass density [kg/m3]	specific volume [m3/kg]
263.15 K, 135.2 kPa	–	0.115
268.15 K, 138.3 kPa	–	0.115
273.14 K, 141.3 kPa	–	0.116
273.15 K, 202.4 kPa	–	0.079
278.15 K, 144.3 kPa	–	0.116
278.15 K, 207 kPa	–	0.079
282.83 K, 301.1 kPa	–	0.054
283.14 K, 12501 kPa	1378.7	–
283.15 K, 211.5 kPa	–	0.079
283.15 K, 510 kPa	1329.6	–
283.15 K, 604 kPa	1330.1	–
283.15 K, 1003 kPa	1332	–
283.15 K, 1499 kPa	1334.5	–
283.15 K, 1997 kPa	1336.8	–
283.15 K, 2500 kPa	1339.1	–
283.15 K, 5000 kPa	1350.2	–
283.15 K, 7499 kPa	1360.3	–
283.15 K, 9998 kPa	1369.8	–
283.15 K, 15001 kPa	1387	–
283.15 K, 17501 kPa	1395	–
283.15 K, 20001 kPa	1402.5	–
283.15 K, 22497 kPa	1409.9	–
283.15 K, 25000 kPa	1417	–
283.16 K, 147.3 kPa	–	0.116
283.16 K, 27503 kPa	1423.9	–
283.16 K, 29999 kPa	1430.3	–
283.16 K, 32498 kPa	1436.2	–
283.16 K, 35004 kPa	1442.4	–
287.91 K, 307.5 kPa	–	0.054
288.15 K, 150.2 kPa	–	0.116
288.15 K, 215.6 kPa	–	0.079
292.78 K, 314.1 kPa	–	0.054
293.15 K, 152.7 kPa	–	0.116
293.15 K, 220 kPa	–	0.079
293.15 K, 470 kPa	1293.2	–
293.15 K, 598 kPa	1293.9	–
293.15 K, 1000 kPa	1296.2	–
293.15 K, 1500 kPa	1299.1	–
293.15 K, 2000 kPa	1301.9	–
293.15 K, 2500 kPa	1304.6	–
293.15 K, 5000 kPa	1317.4	–
293.15 K, 7500 kPa	1329	–
293.15 K, 10001 kPa	1339.8	–
293.15 K, 12500 kPa	1349.7	–
293.15 K, 14999 kPa	1359	–
293.15 K, 17500 kPa	1367.8	–
293.15 K, 20000 kPa	1376	–
293.15 K, 22500 kPa	1383.9	–
293.15 K, 25000 kPa	1391.4	–
293.15 K, 27499 kPa	1398.5	–
293.15 K, 30000 kPa	1405.4	–
293.15 K, 32500 kPa	1412	–
293.15 K, 34999 kPa	1418.5	–
297.14 K, 418.9 kPa	–	0.04
298.15 K, 155.7 kPa	–	0.116
298.15 K, 224.3 kPa	–	0.079
298.15 K, 498.5 kPa	–	0.032
298.47 K, 320.7 kPa	–	0.054
303.14 K, 327 kPa	–	0.054
303.14 K, 510.2 kPa	–	0.032
303.15 K, 158.7 kPa	–	0.116
303.15 K, 228.2 kPa	–	0.079
303.15 K, 430 kPa	–	0.04
303.15 K, 700 kPa	1255.3	–
303.15 K, 1000 kPa	1257.4	–
303.15 K, 1500 kPa	1260.9	–
303.15 K, 2000 kPa	1264.3	–
303.15 K, 7500 kPa	1296.6	–
303.15 K, 9999 kPa	1308.8	–
303.15 K, 12500 kPa	1320.1	–
303.15 K, 20000 kPa	1349.2	–
303.15 K, 22501 kPa	1357.8	–
303.15 K, 24999 kPa	1366	–
303.15 K, 27500 kPa	1374.4	–
303.16 K, 2499 kPa	1267.8	–
303.16 K, 5000 kPa	1283.2	–
303.16 K, 14996 kPa	1330.5	–
303.16 K, 17500 kPa	1340.2	–
303.16 K, 30000 kPa	1381.8	–
303.16 K, 32500 kPa	1388.8	–
303.16 K, 35000 kPa	1395.6	–
308.12 K, 522.1 kPa	–	0.032
308.14 K, 161.7 kPa	–	0.116
308.14 K, 612.3 kPa	–	0.027
308.15 K, 232.8 kPa	–	0.079
308.15 K, 333.9 kPa	–	0.054
308.15 K, 439 kPa	–	0.04
312.86 K, 236.9 kPa	–	0.079
313.13 K, 533.4 kPa	–	0.032
313.14 K, 627 kPa	–	0.027
313.14 K, 7500 kPa	1262.1	–
313.14 K, 10000 kPa	1276.1	–
313.15 K, 164.2 kPa	–	0.116
313.15 K, 447.9 kPa	–	0.04
313.15 K, 1000 kPa	1216.2	–
313.15 K, 1500 kPa	1220.4	–
313.15 K, 2008 kPa	1224.6	–
313.15 K, 5000 kPa	1246.4	–
313.15 K, 12501 kPa	1288.9	–
313.15 K, 15000 kPa	1300.5	–
313.15 K, 17497 kPa	1311.3	–
313.15 K, 20000 kPa	1321.4	–
313.15 K, 22500 kPa	1330.8	–
313.15 K, 25000 kPa	1339.7	–
313.15 K, 27500 kPa	1348.1	–
313.15 K, 30001 kPa	1356.1	–
313.15 K, 32500 kPa	1363.7	–
313.15 K, 35000 kPa	1371	–
313.16 K, 340.4 kPa	–	0.054
313.16 K, 2501 kPa	1228.3	–
318.14 K, 346.9 kPa	–	0.054
318.14 K, 641.3 kPa	–	0.027
318.15 K, 166.8 kPa	–	0.116
318.15 K, 241.3 kPa	–	0.079
318.15 K, 457 kPa	–	0.04
318.23 K, 544.9 kPa	–	0.033
323.14 K, 353.4 kPa	–	0.054
323.14 K, 555.9 kPa	–	0.033
323.14 K, 655.2 kPa	–	0.027
323.15 K, 169.7 kPa	–	0.116
323.15 K, 245.6 kPa	–	0.079
323.15 K, 1296 kPa	1172.9	–
323.15 K, 7500 kPa	1226.8	–
323.15 K, 10001 kPa	1243.3	–
323.15 K, 12499 kPa	1257.6	–
323.15 K, 15000 kPa	1270.8	–
323.15 K, 17499 kPa	1282.9	–
323.15 K, 19999 kPa	1294	–
323.15 K, 22500 kPa	1304.4	–
323.15 K, 25001 kPa	1314.1	–
323.15 K, 27500 kPa	1323.2	–
323.15 K, 30001 kPa	1331.8	–
323.15 K, 32501 kPa	1340	–
323.15 K, 35001 kPa	1347.7	–
323.16 K, 466.1 kPa	–	0.04
323.16 K, 1499 kPa	1175.1	–
323.16 K, 2000 kPa	1180.3	–
323.16 K, 2502 kPa	1185.5	–
323.16 K, 4998 kPa	1207.9	–
328.07 K, 566.8 kPa	–	0.033
328.11 K, 360.1 kPa	–	0.054
328.14 K, 669.2 kPa	–	0.027
328.15 K, 172.6 kPa	–	0.116
328.15 K, 249.7 kPa	–	0.079
328.15 K, 475.1 kPa	–	0.04
333.1 K, 365.4 kPa	–	0.054
333.1 K, 578.2 kPa	–	0.033
333.13 K, 682.7 kPa	–	0.027
333.15 K, 174.9 kPa	–	0.116
333.15 K, 253.9 kPa	–	0.079
333.15 K, 483.9 kPa	–	0.04
333.15 K, 1502 kPa	1124.9	–
333.15 K, 1999 kPa	1132	–
333.15 K, 2500 kPa	1138.6	–
333.15 K, 5000 kPa	1166.8	–
333.15 K, 7500 kPa	1189.4	–
333.15 K, 10000 kPa	1208.6	–
333.15 K, 12500 kPa	1225.4	–
333.15 K, 15000 kPa	1240.4	–
333.15 K, 17500 kPa	1255	–
333.15 K, 20000 kPa	1266.6	–
333.15 K, 22500 kPa	1278.1	–
333.15 K, 25003 kPa	1288.8	–
333.15 K, 27500 kPa	1298.8	–
333.15 K, 29999 kPa	1308.2	–
333.15 K, 32500 kPa	1317.8	–
333.15 K, 35000 kPa	1326.3	–
338.08 K, 589.4 kPa	–	0.033
338.08 K, 696.3 kPa	–	0.027
338.14 K, 371.5 kPa	–	0.054
338.15 K, 177.9 kPa	–	0.116
338.15 K, 257.7 kPa	–	0.079
338.15 K, 492.8 kPa	–	0.04
343.08 K, 600.4 kPa	–	0.033
343.09 K, 377.8 kPa	–	0.054
343.13 K, 710 kPa	–	0.027
343.15 K, 181 kPa	–	0.116
343.15 K, 262.4 kPa	–	0.079
343.15 K, 501.5 kPa	–	0.04
343.15 K, 1800 kPa	1070	–
343.15 K, 2000 kPa	1074.1	–
343.15 K, 2500 kPa	1083.8	–
343.15 K, 5001 kPa	1121.1	–
343.15 K, 7500 kPa	1149.2	–
343.15 K, 10001 kPa	1172	–
343.15 K, 12500 kPa	1191.5	–
343.15 K, 15000 kPa	1208.5	–
343.15 K, 17500 kPa	1223.8	–
343.15 K, 20000 kPa	1237.6	–
343.15 K, 22500 kPa	1250.3	–
343.15 K, 27500 kPa	1273.2	–
343.15 K, 30000 kPa	1283.5	–
343.15 K, 32500 kPa	1293.3	–
343.15 K, 35000 kPa	1302.5	–
343.16 K, 25000 kPa	1262.3	–
348.06 K, 611.4 kPa	–	0.033
348.07 K, 383.7 kPa	–	0.054
348.14 K, 723.7 kPa	–	0.027
348.15 K, 183.8 kPa	–	0.116
348.15 K, 266.6 kPa	–	0.079
348.15 K, 510.2 kPa	–	0.04
353.05 K, 390.1 kPa	–	0.054
353.11 K, 622.8 kPa	–	0.033
353.13 K, 737.3 kPa	–	0.027
353.14 K, 20000 kPa	1209	–
353.15 K, 186.6 kPa	–	0.116
353.15 K, 270.7 kPa	–	0.079
353.15 K, 518.9 kPa	–	0.04
353.15 K, 5000 kPa	1070.7	–
353.15 K, 7500 kPa	1106.5	–
353.15 K, 10000 kPa	1134	–
353.15 K, 12500 kPa	1156.8	–
353.15 K, 15000 kPa	1176.3	–
353.15 K, 17500 kPa	1193.5	–
353.15 K, 22500 kPa	1223	–
353.15 K, 25000 kPa	1235.9	–
353.15 K, 27500 kPa	1247.9	–
353.15 K, 30000 kPa	1259	–
353.15 K, 32502 kPa	1269.4	–
353.16 K, 2500 kPa	1016.9	–
353.16 K, 35001 kPa	1279.2	–
358.11 K, 397.3 kPa	–	0.054
358.15 K, 189.5 kPa	–	0.116
358.15 K, 274.5 kPa	–	0.079
358.15 K, 527.6 kPa	–	0.04
358.15 K, 750.7 kPa	–	0.027
358.17 K, 633.7 kPa	–	0.033
363.13 K, 764 kPa	–	0.027
363.14 K, 278.7 kPa	–	0.079
363.14 K, 644.4 kPa	–	0.033
363.16 K, 192.3 kPa	–	0.116
363.16 K, 536.1 kPa	–	0.04
363.29 K, 404 kPa	–	0.054
368.03 K, 409.8 kPa	–	0.054
368.1 K, 777.4 kPa	–	0.027
368.15 K, 194.3 kPa	–	0.116
368.15 K, 544.7 kPa	–	0.04
368.16 K, 282.9 kPa	–	0.079
368.16 K, 655.3 kPa	–	0.033
